We go through 36 compounds from ChEMBL document CHEMBL2434827, “Selective inhibition of heme oxygenase-2 activity by analogs of 1-(4-chlorobenzyl)-2-(pyrrolidin-1-ylmethyl)-1H-benzimidazole (clemizole): Exploration of the effects of substituents at the N-1 position” (Bioorg Med Chem, 2013).

For assay [1], the target named is T1, Heme oxygenase 1 (Rattus norvegicus, UniProt P06762).
T1 sequence (P06762 whole entry): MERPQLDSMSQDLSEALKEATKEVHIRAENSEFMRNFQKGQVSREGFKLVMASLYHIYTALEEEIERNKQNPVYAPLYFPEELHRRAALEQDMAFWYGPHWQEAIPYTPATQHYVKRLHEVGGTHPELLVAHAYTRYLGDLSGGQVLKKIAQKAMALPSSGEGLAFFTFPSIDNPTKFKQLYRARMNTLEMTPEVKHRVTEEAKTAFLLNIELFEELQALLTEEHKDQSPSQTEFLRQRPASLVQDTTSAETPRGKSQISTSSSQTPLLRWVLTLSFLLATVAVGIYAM
The experiment in a line: Inhibition of HO-1 in Sprague-Dawley rat spleen microsomal fractions assessed as carbon monoxide formation from methemalbumin after 10 mins by gas chromatography analysis. Type of assay: microsomes, Microsome.

Assay [2] deals with T2, Heme oxygenase 2 (Rattus norvegicus, UniProt P23711).
T2 sequence (P23711 whole entry): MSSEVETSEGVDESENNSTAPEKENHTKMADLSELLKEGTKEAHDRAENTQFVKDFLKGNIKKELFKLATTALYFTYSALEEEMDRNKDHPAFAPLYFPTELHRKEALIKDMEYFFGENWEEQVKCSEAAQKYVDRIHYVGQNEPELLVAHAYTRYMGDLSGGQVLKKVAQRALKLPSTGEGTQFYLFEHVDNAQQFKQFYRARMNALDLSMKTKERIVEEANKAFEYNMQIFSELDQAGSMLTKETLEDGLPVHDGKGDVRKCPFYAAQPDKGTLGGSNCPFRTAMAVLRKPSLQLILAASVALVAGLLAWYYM
The experiment in a line: Inhibition of HO-2 in Sprague-Dawley rat brain microsomal fractions assessed as carbon monoxide formation from methemalbumin after 10 mins by gas chromatography analysis. Type of assay: microsomes.

The species entered for assay [3] is Rattus norvegicus. Put plainly: Selectivity index, ratio of IC50 for HO-1 in Sprague-Dawley rat spleen microsomal fractions to IC50 for HO-2 in Sprague-Dawley rat brain microsomal fractions. In kind it is microsomes. The note with it: Microsome.

A value given as a limit tells only on which side of the number the result lay.

As for `CC(C)c1ccc(Cn2c(CN3CCCC3)nc3ccccc32)cc1`, the IC50 in assay [1] is > 100 µM; in assay [2] it was 55 µM. Also, the Ratio IC50 in assay [3] was > 1.8.
In the case of `N#Cc1ccccc1Cn1c(CN2CCCC2)nc2ccccc21`, the values for the IC50 in assay [1] and in assay [2] were > 100 µM and 4 µM, respectively. Further, in assay [3], the Ratio IC50 was > 25.
In the case of `Clc1ccc(Cn2c(CN3CCCC3)nc3ccccc32)c(Cl)c1`, the IC50 was 62 µM in assay [1] and 6.1 µM in assay [2]. For the same compound, the Ratio IC50 in assay [3] amounted to 10.
Regarding `O=[N+]([O-])c1cccc(Cn2c(CN3CCCC3)nc3ccccc32)c1`, the IC50 in assay [1] is > 100 µM; in assay [2], 1.3 µM. In addition, the Ratio IC50 in assay [3] was > 76.
For `Brc1ccc(Cn2c(CN3CCCC3)nc3ccccc32)cc1`, the IC50 in assay [1] was > 100 µM; in assay [2] it was 2.6 µM. In addition, the Ratio IC50 in assay [3] was > 38.
As to `Ic1ccc(Cn2c(CN3CCCC3)nc3ccccc32)cc1`, the IC50 in assay [1] was > 100 µM; in assay [2] it was 7.6 µM. Besides, the Ratio IC50 in assay [3] was > 13.
For the compound `c1ccc(OCCn2c(CN3CCCC3)nc3ccccc32)cc1`, the IC50 in assay [1] and in assay [2] was > 100 µM each time.
Regarding `O=[N+]([O-])c1ccccc1Cn1c(CN2CCCC2)nc2ccccc21`, the IC50 in assay [1] was > 100 µM; in assay [2] it was 3.5 µM. For the same compound, in assay [3], the Ratio IC50 was > 28.
The corresponding values for `Clc1cccc(Cl)c1Cn1c(CN2CCCC2)nc2ccccc21` are > 100 µM, 9.2 µM and > 10.
For `Cc1cccc(Cn2c(CN3CCCC3)nc3ccccc32)c1`, the IC50 is > 100 µM in assay [1] and 5 µM in assay [2]. For the same compound, in assay [3], the Ratio IC50 was > 20.
The corresponding values for `Brc1cccc(Cn2c(CN3CCCC3)nc3ccccc32)c1` are > 100 µM, 1.5 µM and > 66.
On to `Clc1cc(Cl)cc(Cn2c(CN3CCCC3)nc3ccccc32)c1`, for which the IC50 is > 100 µM in assay [1] and 2.1 µM in assay [2]. For the same compound, the Ratio IC50 in assay [3] is > 47.
For `Clc1cccc(Cn2c(CN3CCCC3)nc3ccccc32)c1Cl`, the IC50 in assay [1] is > 100 µM; in assay [2], 14.7 µM. Further, in assay [3], the Ratio IC50 is > 6.
The corresponding values for `COc1ccc(Cn2c(CN3CCCC3)nc3ccccc32)cc1` are > 100 µM, 18 µM and > 5.
For `Cc1ccc(Cn2c(CN3CCCC3)nc3ccccc32)cc1`, in that order: > 100 µM, 5 µM and > 20.
As for `Cc1ccccc1Cn1c(CN2CCCC2)nc2ccccc21`, the results for the IC50 in assay [1] and in assay [2] were 76 µM and 1.8 µM, respectively. Besides, the Ratio IC50 in assay [3] came out at 42.
On to `N#Cc1ccc(Cn2c(CN3CCCC3)nc3ccccc32)cc1`, for which the IC50 in assay [1] was > 100 µM; in assay [2], 11 µM. For the same compound, the Ratio IC50 in assay [3] was > 9.
As to `c1ccc2cc(Cn3c(CN4CCCC4)nc4ccccc43)ccc2c1`, the IC50 in assay [1] was > 100 µM; in assay [2], 5 µM. Moreover, the Ratio IC50 in assay [3] is > 20.
With `FC(F)(F)c1ccc(Cn2c(CN3CCCC3)nc3ccccc32)cc1`, the IC50 in assay [1] is > 100 µM; in assay [2] it was 15.6 µM. Besides, the Ratio IC50 in assay [3] is > 6.4.
On to `Clc1ccc(Cn2c(CN3CCCC3)nc3ccccc32)cc1Cl`, for which the IC50 in assay [1] was > 100 µM; in assay [2] it was 17 µM. Moreover, the Ratio IC50 in assay [3] is > 5.
Regarding `Clc1ccc(Cl)c(Cn2c(CN3CCCC3)nc3ccccc32)c1`, the figures for the half-maximal inhibitory concentration (IC50) in assay [1] and in assay [2] were 96 µM and 4 µM, respectively. Also, the Ratio IC50 in assay [3] worked out at 24.
For `c1ccc(Cn2c(CN3CCCC3)nc3ccccc32)cc1`, the IC50 in assay [1] is > 100 µM; in assay [2], 3.1 µM. For the same compound, in assay [3], the Ratio IC50 is > 32.
`O=[N+]([O-])c1ccc(Cn2c(CN3CCCC3)nc3ccccc32)cc1`: the IC50 was > 100 µM in assay [1] and 27 µM in assay [2]. Further, in assay [3], the Ratio IC50 was > 3.
`CSc1ccc(Cn2c(CN3CCCC3)nc3ccccc32)cc1`: the IC50 in assay [1] is > 100 µM; in assay [2] it was 15 µM. Besides, in assay [3], the Ratio IC50 is > 6.
As to `N#Cc1cccc(Cn2c(CN3CCCC3)nc3ccccc32)c1`, the IC50 in assay [1] was > 100 µM; in assay [2] it was 15.8 µM. Moreover, the Ratio IC50 in assay [3] was > 6.
Regarding `c1ccc2c(c1)nc(CN1CCCC1)n2CC1CCCCC1`, the IC50 was > 100 µM in assay [1] and 6 µM in assay [2]. In addition, in assay [3], the Ratio IC50 was > 16.
As to `c1ccc(C(c2ccccc2)n2c(CN3CCCC3)nc3ccccc32)cc1`, the IC50 in assay [1] is > 100 µM; in assay [2], 4.1 µM. For the same compound, in assay [3], the Ratio IC50 is > 24.
Turning to `Clc1ccc(Cn2c(CN3CCCC3)nc3ccccc32)cc1`, the IC50 in assay [1] was > 100 µM; in assay [2], 3.4 µM. Also, the Ratio IC50 in assay [3] was > 29.
The corresponding values for `c1ccc(COc2ccc(Cn3c(CN4CCCC4)nc4ccccc43)cc2)cc1` are > 100 µM, 63 µM and > 1.5.
The corresponding values for `Fc1ccc(Cn2c(CN3CCCC3)nc3ccccc32)cc1` are > 100 µM, 2 µM and > 50.
As for `Brc1ccccc1Cn1c(CN2CCCC2)nc2ccccc21`, the IC50 in assay [1] stood at 42 µM; in assay [2], 1.6 µM. Further, the Ratio IC50 in assay [3] came out at 26.
With `CCCn1c(CN2CCCC2)nc2ccccc21`, the IC50 in assay [1] was > 100 µM; in assay [2], 27 µM. The Ratio IC50 in assay [3] is > 3.
Take `c1ccc2[nH]c(CN3CCCC3)nc2c1`: the IC50 in assay [1] and in assay [2] was > 100 µM throughout.
As to `c1ccc(CCn2c(CN3CCCC3)nc3ccccc32)cc1`, the values for the IC50 in assay [1] and in assay [2] were > 100 µM and 2.7 µM, respectively. Also, the Ratio IC50 in assay [3] is > 37.
Consider `Clc1ccccc1Cn1c(CN2CCCC2)nc2ccccc21`, for which the IC50 in assay [1] is > 100 µM; in assay [2], 4.8 µM. Besides, in assay [3], the Ratio IC50 was > 20.
With `Clc1cccc(Cn2c(CN3CCCC3)nc3ccccc32)c1`, the results for the IC50 in assay [1] and in assay [2] were > 100 µM and 1.65 µM, respectively. In assay [3], the Ratio IC50 was > 60.

What is called IC50 is the point on the concentration scale where inhibition reaches its midpoint.
